Laboratory results published in patent US8470874B2, “Pharmaceutical compositions comprising cannabichromene type compounds” (GW Pharma Limited, priority 2003, dated 2013).
Like-named read-outs stand apart in the source and are kept apart here.

Columns and labels:
[1] = tested on: C57BL6BYJ mice; experiment: tail suspension test; assay type: in vivo; conditions: male mice
Method: The experiment used 112 C57BL6BYJ mice (Jackson Laboratories, Bar Harbor, Me.) which were housed in same sex groups (n=3-5) and maintained on a reversed 12 h light-dark cycle, with all testing being completed during the first 4 h of the dark phase cycle. Food and water were provided ad libitum except during behavioural testing. The subjects were six weeks old at the time of testing and consisted of groups with equal numbers of males (18-26 g) and females (15-21 g).
The substantially pure CBC extract (54.0 mg/ml in ethanol) was diluted in Tween 80 and subsequently diluted further to the correct dose with PBS (pH 7.4). The final concentration of Tween 80 was 5% for all preparations.
Imipramine (30 mg/kg) was used as an antidepressant control and diluted as per the CBC extract. Test article at doses of 0, 5, 10, 20, 40, 80 mg/kg/0.01 ml/g bodyweight were administered i.p. under sodium light to minimise exposure to light.
For the tail suspension test, a sound-attenuated chamber (Lafayette Instruments, Lafayette, Ind.) with a titanium bar (1 cm diameter×24 cn long) mounted 15 cm from the floor of the test chamber was used. An opto-electronic sensor was mounted in a 4 cm×4 cm white plastic column and positioned 5 cm from the mounting bar. An infra-red light transmitted from the light emitting diode onto the animal. If the animal moved, the amount of light collected by the phototransistor would increase or decrease depending on the size and duration of the movement. The opto-electric sensor was connected to an interface designed to condition and amplify the signal (range 0-10 volts) and then send the amplified signal to an A/D interface board (Powerlab 4/s: AD Instruments, Mountain View, Calif.) connected to a Macintosh G4 microcomputer. The duration of the experiment and the recording of raw behavioural responses was controlled and saved to a data file using Chart 3.6 data collection software (AD Instruments, Mountain View, Calif.).
On the day of testing, the mice were weighed and randomly assigned to groups with the restriction that equal numbers of males and females be represented in each group. Test article or control drug was injected intraperitoneally. Thirty minutes later each mouse was tested on the tail-suspension test for six minutes.
The mouse was suspended from a bar by the tail using adhesive tape so that the tip of their nose was 2 cm from the floor of the tail suspension chamber. The photodiode was then placed 5 cm away from the subject and aimed at the middle of the subject's ventral surface. Each subject was tested for six minutes. The total number of movements and total amount of time spent immobile were recorded. […] A period of immobility was counted only if no movements above 350 mV were recorded for at least 1000 ms. The total amount of time spent immobile was calculated by summing the duration of the individual immobility periods. These criteria were selected to be similar to those used in previous tail suspension studies (e.g., Steru et al., 1985).
Antidepressant effects are indicated by an increase in the frequency of struggling activity during the test. In addition the degree or amplitude of struggling is thought to be a predictor of antidepressant activity.
The results shown in FIGS. 2 to 7 are from the male mice only as the data obtained from the female mice were confounded by the oestrous cycle.

[2] = tested on: mice; conditions: cited from earlier work
[3] = tested on: rat paw edema; conditions: in vivo, equivalent doses; cited from earlier work
[4] = tested on: erythrocyte membrane; conditions: in vitro, equivalent doses; cited from earlier work
[5] = tested on: prostaglandin synthesis; conditions: in vitro; cited from earlier work
[6] = tested on: dogs; conditions: cited from earlier work
[7] = tested on: rats; conditions: cited from earlier work
[8] = tested on: monkeys or humans; conditions: cited from earlier work
[9] = tested on: rats; conditions: co-administration of CBC with THC; cited from earlier work

CCCCCc1cc(O)c2c(c1)OC(C)(CCC=C(C)C)C=C2 (centres unmarked) [CBC, cannabichromene]
all activity compared with imipramine ([1]; CBC 10 mg/kg/0.01 ml/g bodyweight i.p. vs imipramine 30 mg/kg): comparable to those observed in the mice administered imipramine | degree of struggling (percentage very large vigorous movements), mean ([1]; CBC 20 mg/kg/0.01 ml/g bodyweight i.p.): 31.4% | degree of struggling (percentage very large vigorous movements), mean ([1]; CBC 80 mg/kg/0.01 ml/g bodyweight i.p.): 30.2% | number of large vigorous movements compared with imipramine ([1]; CBC 10 and 40 mg/kg/0.01 ml/g bodyweight i.p. vs imipramine 30 mg/kg): comparable number of large vigorous movements | number of large vigorous movements compared with imipramine ([1]; CBC 20 or 80 mg/kg/0.01 ml/g bodyweight i.p. vs imipramine 30 mg/kg): greater number of large vigorous movements in the animals than imipramine | most efficient dose for antidepressant action ([1]; i.p., from Fisher's PLSD of struggling): 20 mg/kg/0.01 ml/g bodyweight | LD50 ([2]; single intraperitoneal dose): 113.4 mg/kg | anti-inflammatory effect compared with phenylbutazone [3]: as effective as phenylbutazone (PBZ) | anti-inflammatory effect compared with phenylbutazone [4]: as effective as phenylbutazone (PBZ) | inhibition of prostaglandin synthesis [5]: less potently than THC or CBD | sedation [6]: causes sedation | muscular coordination [7]: decreased muscular coordination | cannabimimetic activity [8]: has not been shown to cause any cannabimimetic activity | effect on THC changes in heart rate [9]: potentiates the THC changes in heart rate | effect on THC's hypotensive effects [9]: does not potentiate THC's hypotensive effects

CCCCCc1cc(O)c2c(c1)OC1(C)CCC3C1C2C3(C)C (centres unmarked) [Cannabicyclol]
inhibition of prostaglandin synthesis [5]: almost no inhibitory activity

CCCCCc1cc(O)cc(O)c1 [Olivetol]
inhibition of prostaglandin synthesis [5]: high activity

CN(C)CCCN1c2ccccc2CCc2ccccc21 [imipramine, reference compound]
activity mean (all activity) ([1]; imipramine 30 mg/kg/0.01 ml/g bodyweight i.p., 30 min after dosing, 6 min test): 733.5

CCCCCc1cc(O)c2c(c1)OC(C)(C)[C@@H]1CCC(C)=C[C@@H]21 [Δ9-THC]
LD50 ([2]; single intraperitoneal dose): 276.3 mg/kg | LD50 ([2]; Δ9-THC with 25 mg/kg CBC given concurrently): 152.0 mg/kg
